Measured values taken from US9938258B2 (Karyopharm Therapeutics Inc., priority 2012, dated 2018).
Like-named read-outs stand apart in the source and are kept apart here.

Experiments:
[1] = tested on: MS751 cells; assay: MTT cell proliferation assay, MS751; format: cell-based, human; details: Homo sapiens
In short: (§1)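 Seeding 5,000-10,000 cells/well, overnight attachment; 8 concs, 1 nM–30 μM. MTT ~4 h, formazan solubilized, OD 490 nm. % inhibition vs negative control, mostly duplicate, mean±SE.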

[2] = tested on: Z138 cells; assay: MTT cell proliferation assay, Z138; format: cell-based; details: Homo sapiens
In short: as §1

[3] = tested on: 3T3 cells; assay: MTT cell proliferation assay, 3T3; format: cell-based, mouse; details: Mus musculus
In short: as §1

[4] = MS751, MS751 cells, approximately 64-72 hours incubation, read-out: MTT Assay IC50, MS751
[5] = Z-138, Z138 cells, approximately 64-72 hours incubation, read-out: MTT Assay IC50, Z138
[6] = NIH3T3, 3T3 cells, approximately 64-72 hours incubation, read-out: MTT Assay IC50, 3T3
[7] = MS751, MS751 cells, eight concentrations 1 nM to 30 μM, incubation approximately 64-72 hours, read-out: MTT Assay IC50, MS751
[8] = Z-138, Z138 cells, eight concentrations 1 nM to 30 μM, incubation approximately 64-72 hours, read-out: MTT Assay IC50, Z138
[9] = NIH3T3, 3T3 cells, eight concentrations 1 nM to 30 μM, incubation approximately 64-72 hours, read-out: MTT Assay IC50, 3T3
[10] = MS751, read-out: MTT Assay IC50, MS751
[11] = Z-138, read-out: MTT Assay IC50, Z138
[12] = NIH3T3, read-out: MTT Assay IC50, 3T3

| SMILES | IC50 [1, 4] | IC50 [2, 5] | IC50 [3, 6] | IC50 [1, 7] | IC50 [2, 8] | IC50 [3, 9] | other results |
| --- | --- | --- | --- | --- | --- | --- | --- |
| CC(=O)c1ccc(-c2cccc3c2OC(CNC(=O)/C=C/c2ccc(N)nc2)C3)s1 (stereo not drawn) [Compound 305, (E)-N-((7-(5-Acetylthiophen-2-yl)-2,3-dihydrobenzofuran-2-yl)methyl)-3-(6-aminopyridin-3-yl)acrylamide] | 0.1 to 5 µM | 0.1 to 5 µM | 5 to 30 µM | – | – | – | – |
| CC(=O)c1ccc(-c2cc(Cl)c3c(c2)CC(CNC(=O)/C=C/c2csnn2)O3)s1 (stereo not drawn) [Compound 281, (E)-N-((5-(5-acetylthiophen-2-yl)-7-chloro-2,3-dihydrobenzofuran-2-yl)methyl)-3-(1,2,3-thiadizol-5-yl)acrylamide] | > 30 µM | > 30 µM | > 30 µM | – | – | – | – |
| Nc1ccc(CNC(=O)/C=C/C2Cc3cc(-c4ccc(S(=O)(=O)N5CC(F)(F)C5)cc4)cc(Cl)c3O2)cn1 (stereo not drawn) [Compound 363, (E)-N-((6-aminopyridin-3-yl)methyl)-3-(7-chloro-5-(4-(3,3-difluoroazetidin-1-ylsulfonyl)phenyl)-2,3-dihydrobenzofuran-2-yl)acrylamide] | > 30 µM | > 30 µM | 5 to 30 µM | – | – | – | – |
| CC(=O)c1ccc(-c2cc(Cl)c3c(c2)CC(CNC(=O)/C=C/c2cn(C)c4ccccc24)O3)s1 (stereo not drawn) [Compound 189, (E)-N-((5-(5-acetylthiophen-2-yl)-7-chloro-2,3-dihydrobenzofuran-2-yl)methyl)-3-(1-methyl-1H-indol-3-yl)acrylamide] | – | – | – | > 30 µM | > 30 µM | > 30 µM | – |
| CC1(F)CN(C(=O)c2ccc(-c3cc(Cl)c4c(c3)CC(/C=C/C(=O)NCc3ccc(N)nc3)O4)cc2)C1 (stereo not drawn) [Compound 366, (E)-N-((6-aminopyridin-3-yl)methyl)-3-(7-chloro-5-(4-(3-fluoro-3-methylazetidine-1-carbonyl)phenyl)-2,3-dihydrobenzofuran-2-yl)acrylamide] | > 30 µM | > 30 µM | 0.1 to 5 µM | – | – | – | – |
| Nc1ccc(/C=C/C(=O)NCC2Cc3cc(-c4ccc(C(=O)CN5CCOCC5)cc4)cc(Cl)c3O2)cn1 (stereo not drawn) [Compound 906, (E)-3-(6-Aminopyridin-3-yl)-N-((7-chloro-5-(4-(2-morpholinoacetyl)phenyl)-2,3-dihydrobenzofuran-2-yl)methyl)acrylamide] | < 0.1 µM | < 0.1 µM | 0.1 to 5 µM | – | – | – | – |
| CC(=O)c1ccc(-c2cc(Cl)c3c(c2)CC(CNC(=O)/C=C/c2ccccc2)O3)s1 (stereo not drawn) [Compound 38, N-((5-(5-acetylthiophen-2-yl)-7-chloro-2,3-dihydrobenzofuran-2-yl)methyl)cinnamamide] | – | – | – | > 30 µM | > 30 µM | > 30 µM | – |
| O=C(/C=C/c1cccnc1)NCC1Cc2cc(-c3cccnc3)cc(Cl)c2O1 (stereo not drawn) [Compound 70, (E)-N-((7-chloro-5-(pyridin-3-yl)-2,3-dihydrobenzofuran-2-yl)methyl)-3-(pyridin-3-yl)acrylamide] | – | – | – | 0.1 to 5 µM | 0.1 to 5 µM | 5 to 30 µM | – |
| CC(=O)c1ccc(-c2cc(Cl)c3c(c2)CC(CNC(=O)/C=C/c2cc(C)n(-c4ccccc4)c2C)O3)s1 (stereo not drawn) [Compound 301, (E)-N-((5-(5-Acetylthiophen-2-yl)-7-chloro-2,3-dihydrobenzofuran-2-yl)methyl)-3-(2,5-dimethyl-1-phenyl-1H-pyrrol-3-yl)acrylamide] | > 30 µM | > 30 µM | > 30 µM | – | – | – | – |
| O=C(/C=C/c1cccnc1)NCC1Cc2cc(-c3cc(Cl)cc(Cl)c3)cc(Cl)c2O1 (stereo not drawn) [Compound 32, (E)-N-((7-chloro-5-(3,5-dichlorophenyl)-2,3-dihydrobenzofuran-2-yl)methyl)-3-(pyridin-3-yl)acrylamide] | – | – | – | 0.1 to 5 µM | 0.1 to 5 µM | > 30 µM | – |
| CN(C)C(=O)c1ccc(-c2cc(Cl)c3c(c2)CC(CNC(=O)/C=C/c2ccc(N)nc2)O3)cc1 (stereo not drawn) [Compound 233, (E)-4-(2-((3-(6-aminopyridin-3-yl)acrylamido)methyl)-7-chloro-2,3-dihydrobenzofuran-5-yl)-N,N-dimethylbenzamide] | 0.1 to 5 µM | < 0.1 µM | 5 to 30 µM | – | – | – | – |
| Nc1ccc(/C=C/C(=O)NCC2Cc3cc(-c4ccc(C(=O)N5CCOCC5)cc4)cc(O)c3O2)cn1 (stereo not drawn) [Compound 347, (E)-3-(6-aminopyridin-3-yl)-N-((7-hydroxy-5-(4-(morpholine-4-carbonyl)phenyl)-2,3-dihydrobenzofuran-2-yl)methyl)acrylamide] | 0.1 to 5 µM | > 30 µM | 0.1 to 5 µM | – | – | – | – |
| CC(=O)c1ccc(-c2cc(Cl)c3c(c2)CC(CN)O3)s1 (stereo not drawn) [Compound 26] | – | – | – | 5 to 30 µM | 5 to 30 µM | 5 to 30 µM | – |
| CC(=O)c1ccc(-c2cc(Cl)c3c(c2)CC(CNC(=O)/C=C/c2cc[nH]c2)O3)s1 (stereo not drawn) [Compound 153, (E)-N-((5-(5-acetylthiophen-2-yl)-7-chloro-2,3-dihydrobenzofuran-2-yl)methyl)-3-(1H-pyrrol-3-yl)acrylamide] | – | – | – | > 30 µM | > 30 µM | > 30 µM | – |
| Nc1ccc(CNC(=O)/C=C/C2Cc3cc(-c4ccc(S(=O)(=O)N5CCOCC5)cc4)cc(Cl)c3O2)cn1 (stereo not drawn) [Compound 350, (E)-N-((6-aminopyridin-3-yl)methyl)-3-(7-chloro-5-(4-(morpholinosulfonyl)phenyl)-2,3-dihydrobenzofuran-2-yl)acrylamide] | 0.1 to 5 µM | > 30 µM | 0.1 to 5 µM | – | – | – | – |
| CC(=O)c1ccc(-c2cc(Cl)c3c(c2)CC(CNC(=O)/C=C/c2cc(C)n(-c4ccc(Cl)cc4)c2C)O3)s1 (stereo not drawn) [Compound 209, (E)-N-((5-(5-acetylthiophen-2-yl)-7-chloro-2,3-dihydrobenzofuran-2-yl)methyl)-3-(1-(4-chlorophenyl)-2,5-dimethyl-1H-pyrrol-3-yl)acrylamide] | > 30 µM | > 30 µM | > 30 µM | – | – | – | – |
| CC(=O)c1ccc(-c2cc(Cl)c3c(c2)CC(CNC(=O)/C=C/c2ccc(N)nc2)O3)o1 (stereo not drawn) [Compound 319, (E)-N-((5-(5-acetylfuran-2-yl)-7-chloro-2,3-dihydrobenzofuran-2-yl)methyl)-3-(6-aminopyridine-3-yl)acrylamide] | 0.1 to 5 µM | < 0.1 µM | 5 to 30 µM | – | – | – | – |
| CC(=O)c1ccc(-c2cc(Cl)c3c(c2)CC(CNC(=O)/C=C/c2cnc(C)s2)O3)s1 (stereo not drawn) [Compound 148, (E)-N-((5-(5-acetylthiophen-2-yl)-7-chloro-2,3-dihydrobenzofuran-2-yl)methyl)-3-(2-methylthiazol-5-yl)acrylamide] | – | – | – | 5 to 30 µM | > 30 µM | > 30 µM | – |
| CC(=O)c1ccc(-c2cc(Cl)c3c(c2)CC(CNC(=O)/C=C/c2c(C)nn(-c4ccccc4)c2Cl)O3)s1 (stereo not drawn) [Compound 211, (E)-N-((5-(5-acetylthiophen-2-yl)-7-chloro-2,3-dihydrobenzofuran-2-yl)methyl)-3-(5-chloro-3-methyl-1-phenyl-1H-pyrazol-4-yl)acrylamide] | > 30 µM | > 30 µM | > 30 µM | – | – | – | – |
| CC(=O)c1sc(-c2cc(Cl)c3c(c2)CC(CNC(=O)/C=C/c2ccc(N)nc2)O3)c(C)c1C (stereo not drawn) [Compound 322] | < 0.1 µM | < 0.1 µM | 5 to 30 µM | – | – | – | – |
| CC(=O)c1ccc(-c2cc(Cl)c3c(c2)CC(CNC(=O)/C=C/c2csc(C)n2)O3)s1 (stereo not drawn) [Compound 159, (E)-N-((5-(5-acetylthiophen-2-yl)-7-chloro-2,3-dihydrobenzofuran-2-yl)methyl)-3-(2-methylthiazol-4-yl)acrylamide] | – | – | – | > 30 µM | > 30 µM | > 30 µM | – |
| COc1cc(-c2ccc(C(=O)N3CCOCC3)cc2)cc2c1OC(CNC(=O)/C=C/c1ccc(N)nc1)C2 (stereo not drawn) [Compound 345, (E)-3-(6-aminopyridin-3-yl)-N-((7-methoxy-5-(4-(morpholine-4-carbonyl)phenyl)-2,3-dihydrobenzofuran-2-yl)methyl)acrylamide] | – | – | – | – | – | – | IC50 [1, 10]: < 0.1 µM; IC50 [2, 11]: 0.1 to 5 µM; IC50 [3, 12]: < 0.1 µM |
| CC(=O)Nc1ccc(/C=C/C(=O)NCC2Cc3cc(-c4ccc(C(C)=O)s4)cc(Cl)c3O2)cn1 (stereo not drawn) [Compound 315, (E)-3-(6-acetamidopyridin-3-yl)-N-((5-(5-acetylthiophen-2-yl)-7-chloro-2,3-dihydrobenzofuran-2-yl)methyl)acrylamide] | – | – | – | – | – | – | IC50 [1, 10]: > 30 µM; IC50 [2, 11]: > 30 µM; IC50 [3, 12]: > 30 µM |
| CC(=O)c1ccc(-c2cc(Cl)c3c(c2)CC(CNC(=O)/C=C/c2cccnc2N)O3)s1 (stereo not drawn) [Compound 106, (E)-N-((5-(5-acetylthiophen-2-yl)-7-chloro-2,3-dihydrobenzofuran-2-yl)methyl)-3-(2-aminopyridin-3-yl)acrylamide] | – | – | – | 5 to 30 µM | 5 to 30 µM | 5 to 30 µM | – |
| CC(=O)c1ccc(-c2cc(Cl)c3c(c2)CC(CNC(=O)/C(C)=C/c2cccnc2)O3)s1 (stereo not drawn) [Compound 262, (E)-N-((5-(5-acetylthiophen-2-yl)-7-chloro-2,3-dihydrobenzofuran-2-yl)methyl)-2-methyl-3-(pyridin-3-yl) acrylamide] | – | – | – | 5 to 30 µM | 5 to 30 µM | > 30 µM | – |
| CC(=O)c1ccc(-c2cc(Cl)c3c(c2)CC(CNC(=O)/C=C/c2cncc(S(=O)(=O)N(C)C)c2)O3)s1 (stereo not drawn) [Compound 210, (E)-N-((5-(5-acetylthiophen-2-yl)-7-chloro-2,3-dihydrobenzofuran-2-yl)methyl)-3-(5-(N,N-dimethylsulfamoyl)pyridin-3-yl)acrylamide] | 5 to 30 µM | > 30 µM | > 30 µM | – | – | – | – |
